Test results as given in patent US20240108006A1, “PESTICIDALLY ACTIVE HETEROAROMATIC COMPOUNDS” (SYNGENTA CROP PROTECTION AG, priority 2021, published 2024).

What was measured:
Type in all cases: in vivo
[1] = tested on: Chilo suppressalis; assay: Example B1: Chilo suppressalis (striped rice stemborer), artificial diet, L2 larvae; conditions: 144 h, application rate of 200 ppm, 6 days after infestation, read-out: control in at least one of the three categories (mortality, anti-feedant effect, or growth inhibition)
How it was run: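 Artificial diet was treated with aqueous test solutions made from 10,000 ppm DMSO stocks, dried, then infested with L2 larvae (6-8 per well). Mortality, anti-feeding effect and growth inhibition were scored against untreated samples 6 days after infestation, and control was counted when any category exceeded untreated.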

[2] = tested on: Diabrotica balteata; assay: Example B2: Diabrotica balteata (corn root worm), maize sprouts, L2 larvae; conditions: 96 h, application rate of 200 ppm, 4 days after infestation, read-out: control in at least one of the two categories (mortality or growth inhibition)
How it was run: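 Maize sprouts on agar sprayed with aqueous test solutions made from 10,000 ppm DMSO stocks, dried, then infested with 6 to 10 L2 larvae per well. Mortality and growth inhibition assessed versus untreated samples 4 days after infestation; application rate 200 ppm.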

[3] = tested on: Euschistus heros; assay: Example B3: Euschistus heros (neotropical brown stink bug), soybean leaves, N2 nymphs; conditions: 120 h, application rate of 200 ppm, 5 days after infestation, read-out: control in at least one of the two categories (mortality or growth inhibition)
[4] = tested on: Myzus persicae; assay: Example B7: Myzus persicae (green peach aphid), intrinsic activity, sucrose solution 24-well; conditions: 120 h, application rate of 12.5 ppm, 5 days after infestation, read-out: control (mortality)
How it was run: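 Compounds from 10,000 ppm DMSO stocks were mixed into sucrose solution in wells at a rate of 12.5 ppm. Aphid-infested pea seedlings were placed on a Parafilm membrane over the solution, so aphids fed through it. Mortality was scored 5 days after infestation.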

[5] = tested on: Plutella xylostella; assay: Example B8: Plutella xylostella (diamond back moth), artificial diet 24-well, eggs; conditions: 192 h, application rate of 200 ppm, 8 days after infestation, read-out: effect in at least one of the two categories (mortality or growth inhibition)
How it was run: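 Artificial diet in 24-well plates treated with aqueous dilutions of DMSO stock (10,000 ppm stock) and dried, then infested with Plutella eggs. Mortality and growth inhibition scored versus untreated samples 8 days after infestation.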

[6] = tested on: Spodoptera littoralis; assay: Example B9: Spodoptera littoralis (Egyptian cotton leaf worm), cotton leaf discs, L1 larvae; conditions: foliar, 72 h, application rate of 200 ppm, 3 days after infestation, read-out: control in at least one of the three categories (mortality, anti-feedant effect, or growth inhibition)
How it was run: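 Cotton leaf discs on agar sprayed with aqueous test solutions from 10,000 ppm DMSO stocks, dried, then infested with five L1 larvae. Mortality, anti-feeding and growth inhibition scored against untreated samples 3 days after infestation.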

[7] = tested on: Spodoptera littoralis; assay: Example B10: Spodoptera littoralis (Egyptian cotton leaf worm), uptake by lettuce roots from agar; conditions: 144 h, test rate of 12.5 ppm, 6 days after infestation, read-out: effect in at least one of the three categories (mortality, anti-feeding, or growth inhibition)
Source text: Example B10: Spodoptera littoralis (Egyptian Cotton Leaf Worm)
Test compounds were applied by pipette from 10,000 ppm DMSO stock solutions into 24-well plates and mixed with agar. Lettuce seeds were placed onto the agar and the multi well plate was closed by another plate which also contained agar. After 7 days the compound was absorbed by the roots and the lettuce grew into the lid plate. The lettuce leaves were then cut off into the lid plate. Spodoptera eggs were pipetted through a plastic stencil onto a humid gel blotting paper and the lid plate was closed with it. The samples were assessed for mortality, anti-feedant effect and growth inhibition in comparison to untreated samples 6 days after infestation.
The following compounds gave an effect of at least 80% in at least one of the three categories (mortality, anti-feeding, or growth inhibition) at a test rate of 12.5 ppm: […]

[8] = tested on: Myzus persicae; assay: Example B11: Myzus persicae (green peach aphid), sucrose solution 96-well; conditions: 120 h, application rate of 50 ppm, 5 days after infestation
Source text: Example B11: Myzus persicae (Green Peach Aphid)
Test compounds prepared from 10,000 ppm DMSO stock solutions were applied by a liquid handling robot into 96-well microtiter plates and mixed with a sucrose solution. Parafilm was stretched over the 96-well microtiter plate and a plastic stencil with 96 holes was placed onto the plate. Aphids were sieved into the wells directly onto the Parafilm. The infested plates were closed with a gel blotting card and a second plastic stencil and then turned upside down. The samples were assessed for mortality 5 days after infestation.

[9] = tested on: Plutella xylostella; assay: Example B12: Plutella xylostella (diamondback moth), artificial diet 96-well; conditions: 216 h, application rate of 500 ppm, 9 days after infestation
Procedure: Example B12: Plutella xylostella (Diamondback Moth)
96-well microtiter plates containing artificial diet were treated with aqueous test solutions, prepared from 10,000 ppm DMSO stock solutions, by a liquid handling robot. After drying, eggs (-30 per well) were infested onto a netted lid which was suspended above the diet. The eggs hatch and L1 larvae move down to the diet. The samples were assessed for mortality 9 days after infestation.
The following compounds gave an effect of at least 80% average mortality at an application rate of 500 ppm: […]

[10] = tested on: Myzus persicae; assay: Example B5: Myzus persicae (green peach aphid), feeding/contact activity; conditions: 144 h, application rate of 200 ppm, 6 days after infestation
Procedure: Example B5: Myzus persicae (Green Peach Aphid):Feeding/Contact Activity
Sunflower leaf discs were placed onto agar in a 24-well microtiter plate and sprayed with aqueous test solutions prepared from 10,000 ppm DMSO stock solutions. After drying, the leaf discs were infested with an aphid population of mixed ages. The samples were assessed for mortality 6 days after infestation.

[11] = tested on: Tetranychus urticae; assay: Example B13: Tetranychus urticae (two-spotted spider mite), feeding/contact activity; conditions: 192 h, read-out: mortality on mixed population (mobile stages)
Procedure: Example B13: Tetranychus urticae (Two-Spotted Spider Mite):Feeding/Contact Activity
Bean leaf discs on agar in 24-well microtiter plates were sprayed with aqueous test solutions prepared from 10,000 ppm DMSO stock solutions. After drying the leaf discs were infested with a mite population of mixed ages. The samples were assessed for mortality on mixed population (mobile stages) 8 days after infestation.

CC(NC(=O)Nc1ccc(C(F)(F)F)cc1Cl)c1ncnn1-c1ncccn1 (centres unmarked) [Example P5, 1-[2-chloro-4-(trifluoromethyl)phenyl]-3-[1-(2-pyrimidin-2-yl-1,2,4-triazol-3-yl)ethyl]urea]
≥ 80%: percent control (mortality, anti-feedant effect or growth inhibition) at 200 ppm [1] | percent control (mortality or growth inhibition) at 200 ppm [2] | percent control (mortality or growth inhibition) at 200 ppm [3] | mortality at 12.5 ppm [4] | percent effect (mortality or growth inhibition) at 200 ppm [5] | percent control (mortality, anti-feedant effect or growth inhibition) at 200 ppm [6] | percent effect (mortality, anti-feeding or growth inhibition) at 12.5 ppm [7] | mortality at 50 ppm [8] | mortality at 500 ppm [9]

C[C@H](NC(=O)Nc1cnc(C(F)(F)F)cc1Cl)c1ncnn1-c1cnccn1 [Example P277, 1-[4-chloro-6-(trifluoromethyl)-3-pyridyl]-3-[(1S)-1-(2-pyrazin-2-yl-1,2,4-triazol-3-yl)ethyl]urea]
≥ 80%: percent control (mortality, anti-feedant effect or growth inhibition) at 200 ppm [1] | percent control (mortality or growth inhibition) at 200 ppm [2] | percent control (mortality or growth inhibition) at 200 ppm [3] | mortality at 200 ppm [10] | mortality at 12.5 ppm [4] | percent effect (mortality or growth inhibition) at 200 ppm [5] | percent control (mortality, anti-feedant effect or growth inhibition) at 200 ppm [6] | mortality at 200 ppm [11]
